What all share (type): functional
One assay has as its system A549. As to the kind of experiment: Cytotoxicity against human A549 cells after 6 days by MTT assay. Particulars: A549, 144 h, read-out: ED50 (the source's name). (Tetrazolium assays rely on reduction of a dye to a coloured formazan, in cell work by metabolically active cells.)
The next assay relates to KB. Nature of the assay: Cytotoxicity against human KB cells after 3 days by MTT assay. Particulars: 72 h, read-out: ED50 (the source's name).
Another assay has as its system HT-29. Nature of the assay: Cytotoxicity against human HT29 cells after 6 days by MTT assay. Particulars: HT-29, 144 h, read-out: ED50 (the source's name).
The next assay concerns P388. Nature of the assay: Cytotoxicity against mouse P388 cells after 3 days by MTT assay. Particulars: P388, 72 h, read-out: ED50 (the source's name).

SMILES strings stand for the structures. In brackets after ≈: the same amount, converted by molar mass.

Data on seven compounds can be found in ChEMBL document CHEMBL1158233, “Cytotoxic Cembranoids from the Soft Corals Sinularia gibberosa and Sarcophyton trocheliophorum” (1996).

With `C/C1=C\C=C(\C(C)(C)O)CC[C@@]2(C)O[C@@H]2CC/C(C)=C/CC1`, the EC50 in the assay on A549 came to 1.03 µg/mL (≈ 3.38 µM); in the assay with KB, 0.63 µg/mL (≈ 2.07 µM); with HT-29 it was 0.64 µg/mL (≈ 2.1 µM); in the assay with P388, 0.01 µg/mL (≈ 0.0328 µM).
Consider `C/C1=C\CCC(C)(O)C2C=C(C(C)(C)O)C(C/C(C)=C/CC1)O2` (stereo not drawn), for which the EC50 in the assay on A549 turned out to be 1.7 µg/mL (≈ 5.3 µM); in the assay on KB it was 17.1 µg/mL (≈ 53.4 µM); with HT-29, 1.81 µg/mL (≈ 5.65 µM); in the assay on P388, 0.23 µg/mL (≈ 0.718 µM).
In the same order, the values of `C/C1=C\C=C(\C(C)(C)O)C(O)C/C(C)=C/CC/C(C)=C/CC1` (stereo not drawn) are 20.2 µg/mL (≈ 66.2 µM), 14.9 µg/mL (≈ 49 µM), 0.29 µg/mL (≈ 0.952 µM) and 1.54 µg/mL (≈ 5.06 µM).
The corresponding values for `CC1=C2CC/C(C)=C/CC[C@@](C)(O)[C@@H](O)CC/C(C)=C/[C@@H]2OC1=O` are 24.7 µg/mL (≈ 73.7 µM), over 50 µg/mL, 22.9 µg/mL (≈ 68.4 µM) and 3.27 µg/mL (≈ 9.78 µM).
In the same order, the values of `CC1=C2CC/C(C)=C/CC[C@]3(C)O[C@H]3CC/C(C)=C/[C@@H]2OC1` are 15.7 µg/mL (≈ 52 µM), over 50 µg/mL, 16.1 µg/mL (≈ 53.1 µM) and 3.87 µg/mL (≈ 12.8 µM).
Take `COC(C)(C)/C1=C/[C@H]2O[C@]2(C)CC/C=C(\C)CC[C@H]2O[C@]2(C)CC1`: the EC50 with A549 was over 50 µg/mL; in the assay with KB it was over 50 µg/mL; with HT-29 it was 0.36 µg/mL (≈ 1.08 µM); with P388 it was 3.26 µg/mL (≈ 9.75 µM).
Take `CC1=C2CC/C(C)=C/CC[C@]3(C)O[C@H]3CC/C(C)=C/[C@@H]2OC1=O` [SARCOPHINE]: the EC50 is 10.4 µg/mL (≈ 32.8 µM) with A549, over 50 µg/mL with KB, 10.5 µg/mL (≈ 33.1 µM) in the assay with HT-29 and 2.42 µg/mL (≈ 7.65 µM) in the assay with P388.
